Data published in patent US20170303540A1, “NOVEL TRIAZOLE DERIVATIVES” (BAYER CROPSCIENCE AKTIENGESELLSCHAFT, priority 2014, published 2017).

Experiment: Log P by HPLC on reversed phase columns (EEC directive 79/831 Annex V.A8)
Assay type: physicochemical
Settings: method [a]: HPLC/LC-MS at pH 2.7, 0.1% formic acid in water / acetonitrile gradient
Method: Measurement of Log P values for Table 2 was performed according to EEC directive 79/831 Annex V.A8 by HPLC (High Performance Liquid Chromatography) on reversed phase columns with the following methods: ^[a]Measurement of LC-MS was done at pH 2.7 with 0.1% formic acid in water and with acetonitrile (contains 0.1% formic acid) as eluent with a linear gradient from 10% acetonitrile to 95% acetonitrile. […] Lambda-max-values were determined using UV-spectra from 200 nm to 400 nm and the peak values of the chromatographic signals.

| Structure (SMILES) | LogP | chromatographic logP (reversed phase HPLC columns) |
| --- | --- | --- |
| CC(C)(Cc1ccc(Cl)cc1)C(O)(Cc1ccnnc1Cl)Cn1cncn1 (stereo not drawn) [Example I-368] | 2.75^[a] | – |
| CCC1(C(O)(Cc2cc(Cl)nnc2Cl)Cn2cncn2)CC1 (stereo not drawn) [Example I-441] | 2.18^[a] | – |
| OC(Cc1ccc(Cl)cc1Cl)(Cc1ccnnc1Cl)Cn1cncn1 (stereo not drawn) [Example I-444] | 2.34^[a] | – |
| OC(Cc1ccc(Cl)cc1Cl)(Cc1cc(Cl)nnc1Cl)Cn1cncn1 (stereo not drawn) [Example I-480] | 2.96^[a] | – |
| CC(CF)(CF)C(O)(Cc1ccnnc1Cl)Cn1cncn1 (stereo not drawn) [Example I-530] | 1.28^[a] | – |
| C=CC(C)(C)C(O)(Cc1ccnnc1Cl)Cn1cncn1 (stereo not drawn) [Example I-592] | 1.60^[a] | – |
| CC(C)(CF)C(O)(Cc1ccnnc1Cl)Cn1cncn1 (stereo not drawn) [Example I-593] | 1.31^[a] | – |
| OC(Cc1cc(Cl)nnc1Cl)(Cn1cncn1)C1CC1 (stereo not drawn) [Example I-710] | 1.49^[a] | – |
| CC(C)(C)C(O)(Cc1ccnnc1Cl)Cn1cncn1 (stereo not drawn) [Example I-713, 1-(3-chloropyridazin-4-yl)-3,3-dimethyl-2-(1H-1,2,4-triazol-1-ylmethyl)butan-2-ol] | – | 1.48 |
| CCC1(C(O)(Cc2ccnnc2Cl)Cn2cncn2)CC1 (stereo not drawn) [Example I-745] | 1.59^[a] | – |
| CC(C)(CCl)C(O)(Cc1ccnnc1Cl)Cn1cncn1 (stereo not drawn) [Example I-771] | 1.70^[a] | – |
| OC(Cc1ccnnc1Cl)(Cn1cncn1)C1CC1 (stereo not drawn) [Example I-799] | 0.84^[a] | – |
